Data from patent publication US20150010479A1, “TREATMENT OF MICROBIAL INFECTIONS” (SINCLAIR PHARMACEUTICALS LIMITED, priority 2012, published 2015).
Where “and” joins values, the source holds several entries; their conditions need not be identical. Equal values may be shown once. Read-outs that look alike come from different tables or passages of the source.

Tests used:
[1] = test system: Prv. nigrescence; assay: CPC and delmopinol combination (chequerboard assay), FICi/FBCi; assay type: cell-based, Prevotella nigrescence
Method: (§1) 190 μl of normal broth (standard assays) or broth A was added to wells of a 96 well plate. […] 5 μl of each dilution of delmopinol was added to the appropriate wells of the 96 wells plate. The contents of each well were mixed thoroughly and then 100 μl volume was discarded.
(§2) Plates were then incubated as described above. […] Following incubation the plates were examined and growth/no growth recorded for every well sample (used for FBC determination).
(§3) FBCi were calculated in the same manner but using MBC data.
(§4) The FICi and FBCi were interpreted using the same parameters as set out above.

[2] = test system: C. albicans; assay: as above; assay type: cell-based, Candida albicans; conditions: CPC + delmopinol
Method: as §1, §2, §3, §4

[3] = test system: P. gingivalis; assay: as above; assay type: cell-based, Porphyromonas gingivalis; conditions: CPC + delmopinol, Standard broth
Method: as §1, §2, §3, §4

[4] = test system: E. coli; assay: MIC/MBC of CPC or delmopinol alone; assay type: cell-based; conditions: Escherichia coli, compound alone
Method: (§5) The final mixture was then sterilized by filtration using a […] PES filter (Nalgene, 169-0045).
(§6) Bacterial preparations were prepared using freshly grown cultures on solid media. Several loop-fulls of culture were transferred to 10-20 ml of the appropriate broth and vortexed gently until a fine suspension was produced. The initial OD600 nm of the cell suspensions was measured and adjusted to 0.2 to give a colony count of 1×10^8 cfu/ml. Final inocula were prepared by diluting the adjusted cell suspensions in appropriate broth as detailed below:
(§7) The broths were added to wells in columns 1, 11 (negative control, broth only) and 12 (positive control).
(§8) 100 μl of normal broth (standard assay) or broth A was added to wells in columns 2-10.
(§9) After mixing in column 10, 100 μl was discarded. 5 μl of the appropriate solvent was added to wells in column 12, mixed and 100 μl discarded.
(§10) Finally, 100 μl of inoculum (prepared in either normal broth or 2× broth A) was added to the wells in columns 1-10 and 12 and the plates were incubated as described above.

[5] = test system: P. gingivalis; assay: MIC/MBC of CPC or delmopinol alone; assay type: cell-based; conditions: Porphyromonas gingivalis
Method: as §5, §6, §7, §8, §9, §10

[6] = test system: S. aureus; assay: MIC/MBC of CPC or delmopinol alone; assay type: cell-based; conditions: Staphylococcus aureus
Method: as §5, §6, §7, §8, §9, §10

[7] = test system: Prv. nigrescence; assay: MIC/MBC of CPC or delmopinol alone; assay type: cell-based; conditions: Prevotella, compound alone
Method: as §5, §6, §7, §8, §9, §10

[8] = test system: C. albicans; assay: MIC/MBC of CPC or delmopinol alone; assay type: cell-based; conditions: Candida albicans, compound alone
Method: as §5, §6, §7, §8, §9, §10

[9] = test system: E. faecalis; assay: MIC/MBC of CPC or delmopinol alone; assay type: cell-based, Entercoccus faecalis; conditions: Enterococcus faecalis, compound alone
Method: as §5, §6, §7, §8, §9, §10

[10] = Decapinol base (Broth A), no delmopinol or sodium benzoate present, read-out: Activity alone Decapinol base MBC
[11] = Decapinol base (Broth A), no delmopinol or sodium benzoate present, read-out: Activity alone Decapinol base MIC
[12] = Standard broth, read-out: Activity alone Standard MBC
[13] = Standard broth, read-out: Activity alone Standard MIC

## CCCCCCCCCCCCCCCC[n+]1ccccc1 [CPC, cetylpyridinium chloride]
[1]
  Combination with delmopinol (FIC) Decapinol base FBCi: 0.53p
  Combination with delmopinol (FIC) Decapinol base FICi: 0.5 s
  Combination with delmopinol (FIC) Standard FBCi: 0.79
[2]; Decapinol base (Broth A)
  Combination with delmopinol (FIC) Decapinol base FBCi: 0.65p
  Combination with delmopinol (FIC) Decapinol base FICi: 0.99
[2]; Standard broth
  Combination with delmopinol (FIC) Standard FBCi: 0.68p
[3]
  Combination with delmopinol (FIC) Standard FICi: 0.62p

## CCCC(CCC)CCCC1COCCN1CCO (centres unmarked) [Delmopinol, 3-(4-propylheptyl)-4-(2-hydroxyethyl)morpholine]
[4]; [10]
  MBC: 250 µg/mL and 920 µM
[4]; [11]
  MIC: 250 µg/mL and 920 µM
[4]; [12]
  MBC: 250 µg/mL and 920 µM
[4]; [13]
  MIC: 250 µg/mL and 920 µM
[5]; read-out: Activity alone Decapinol base MBC
  MBC: 31.2 µg/mL
[5]; read-out: Activity alone Decapinol base MIC
  MIC: 31.2 µg/mL
[5]; read-out: Activity alone Standard MBC
  MBC: 31.2 µg/mL
[5]; P. gingivalis, compound alone, Decapinol base (Broth A), no delmopinol or sodium benzoate present, read-out: Activity alone Decapinol base MBC
  MBC: 120 µM
[5]; P. gingivalis, compound alone, Decapinol base (Broth A), no delmopinol or sodium benzoate present, read-out: Activity alone Decapinol base MIC
  MIC: 1.2 µM
[5]; P. gingivalis, compound alone, Standard broth, read-out: Activity alone Standard MBC
  MBC: 120 µM
[5]; P. gingivalis, compound alone, Standard broth, read-out: Activity alone Standard MIC
  MIC: 1.95 µg/mL
[6]; read-out: Activity alone Standard MIC
  MIC: 125 µg/mL
[6]; S. aureus, compound alone, Decapinol base (Broth A), no delmopinol or sodium benzoate present, read-out: Activity alone Decapinol base MBC
  MBC: 250 µg/mL and 920 µM
[6]; S. aureus, compound alone, Decapinol base (Broth A), no delmopinol or sodium benzoate present, read-out: Activity alone Decapinol base MIC
  MIC: 250 µg/mL and 920 µM
[6]; S. aureus, compound alone, Standard broth, read-out: Activity alone Standard MBC
  MBC: 250 µg/mL and 920 µM
[6]; S. aureus, compound alone, Standard broth, read-out: Activity alone Standard MIC
  MIC: 460 µM
[7]; [10]
  MBC: 125 µg/mL and 460 µM
[7]; [11]
  MIC: 31.2 µg/mL and 120 µM
[7]; [12]
  MBC: 62.5 µg/mL and 230 µM
[7]; [13]
  MIC: 62.5 µg/mL and 230 µM
[8]; [10]
  MBC: 120 µg/mL and 460 µM
[8]; [11]
  MIC: 120 µg/mL and 460 µM
[8]; [12]
  MBC: 500 µg/mL and 1840 µM
[8]; [13]
  MIC: 500 µg/mL and 1840 µM
[9]; [10]
  MBC: 250 µg/mL and 920 µM
[9]; [11]
  MIC: 250 µg/mL and 920 µM
[9]; [12]
  MBC: 250 µg/mL and 920 µM
[9]; [13]
  MIC: 250 µg/mL and 920 µM
